pIC50: −log10 of the molar value.
Key:
Assay type in all cases: cell-based
[1] = molecular target: EP2 subtype of the human PGE2 receptor (Homo sapiens, UniProt P43116); experiment: cAMP antagonism test on the human EP2 receptor (HTRF cAMP detection); conditions: hEP2 receptor, read-out: Antagonism hEP2 IC50
Method in brief: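 Cells expressing human EP2 preincubated 20 min at RT with compound (0.8 nM–16.5 μM), then stimulated 60 min with PGE2 (3× solution 1.5 nM) in PBS-IBMX. After 20 min lysis, cAMP measured by competitive HTRF with cAMP-d2 and Eu cryptate anti-cAMP antibody (665/620 nm ratio).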

[2] = molecular target: T1, human PGD receptor (Homo sapiens, UniProt Q13258); experiment: cAMP antagonism test on the human prostaglandin D receptor (HTRF cAMP detection); conditions: selectivity towards hDP, IC50 measured by cAMP antagonism test
T1 sequence (Q13258 1-359): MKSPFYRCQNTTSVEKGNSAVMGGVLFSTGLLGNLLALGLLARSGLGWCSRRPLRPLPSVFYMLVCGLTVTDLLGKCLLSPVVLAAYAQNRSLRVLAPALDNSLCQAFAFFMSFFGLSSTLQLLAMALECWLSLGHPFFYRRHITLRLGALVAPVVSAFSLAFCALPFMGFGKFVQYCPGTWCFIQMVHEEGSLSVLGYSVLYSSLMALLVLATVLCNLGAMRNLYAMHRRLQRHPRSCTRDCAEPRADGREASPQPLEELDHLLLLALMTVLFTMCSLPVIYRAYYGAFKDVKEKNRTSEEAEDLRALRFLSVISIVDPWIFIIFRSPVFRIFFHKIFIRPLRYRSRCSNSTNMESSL
Method in brief: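 Cells pre-mixed with cAMP-d2 were preincubated with compound (0.8 nM–16.5 μM) for 20 min at RT, then stimulated with 3× PGD2 solution (6 nM, in PBS-IBMX) for 30 min at RT. After lysis (20 min), HTRF read at 665/620 nm; antagonism seen as rise in FRET ratio.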

[3] = molecular target: EP4 subtype of the human PGE2 receptor (Homo sapiens, UniProt P35408); experiment: cAMP antagonism test on the human EP4 receptor (HTRF cAMP detection); conditions: selectivity towards hEP4, IC50 measured by cAMP antagonism test
Method in brief: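 Cells expressing human EP4 preincubated 20 min at RT with compound (0.8 nM–16.5 μM), then stimulated with PGE2 (0.3 nM in 3× solution, with IBMX) 60 min at RT. After lysis, cAMP measured by HTRF competition (665/620 nm ratio); antagonism seen as rise in FRET signal.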

EP2 subtype of the human PGE2 receptor, sequence (P43116 whole entry): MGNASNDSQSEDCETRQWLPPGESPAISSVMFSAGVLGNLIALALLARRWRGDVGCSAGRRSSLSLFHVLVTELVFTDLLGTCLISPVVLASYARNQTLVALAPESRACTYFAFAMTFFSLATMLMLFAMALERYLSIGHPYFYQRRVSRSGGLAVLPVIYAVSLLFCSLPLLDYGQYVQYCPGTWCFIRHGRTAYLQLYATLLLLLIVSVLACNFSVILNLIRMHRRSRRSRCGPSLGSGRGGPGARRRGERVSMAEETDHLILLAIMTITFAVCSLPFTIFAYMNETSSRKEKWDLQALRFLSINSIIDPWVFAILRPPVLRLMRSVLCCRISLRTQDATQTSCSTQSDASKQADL
EP4 subtype of the human PGE2 receptor, sequence (P35408 whole entry): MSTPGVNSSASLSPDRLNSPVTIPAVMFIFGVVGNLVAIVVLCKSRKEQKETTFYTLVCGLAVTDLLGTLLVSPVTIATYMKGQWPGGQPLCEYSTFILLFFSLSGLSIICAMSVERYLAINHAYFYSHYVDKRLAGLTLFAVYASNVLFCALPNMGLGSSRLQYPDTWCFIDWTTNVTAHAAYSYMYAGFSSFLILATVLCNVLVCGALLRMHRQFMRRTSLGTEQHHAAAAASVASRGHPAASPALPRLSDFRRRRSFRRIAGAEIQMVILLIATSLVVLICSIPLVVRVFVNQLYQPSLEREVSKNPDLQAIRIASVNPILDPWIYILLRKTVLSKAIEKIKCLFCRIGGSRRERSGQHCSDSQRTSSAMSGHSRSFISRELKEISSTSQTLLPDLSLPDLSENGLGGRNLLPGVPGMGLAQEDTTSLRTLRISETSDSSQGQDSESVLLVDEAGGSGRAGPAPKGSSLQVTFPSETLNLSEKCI

| Compound | pIC50 [1] | Selectivity hEP2/hDP [2] | Selectivity hEP2/hEP4 [3] |
| --- | --- | --- | --- |
| O=C(NCCOCC1CC1)c1ccc2nn(CC3CCN(C(=O)c4ccc(Oc5ccc(F)cc5)cc4)CC3)cc2c1OCC(F)(F)F [Example 236, N-[2-(cyclopropylmethoxy)ethyl]-2-({1-[4-(4-fluorophenoxy)benzoyl]piperidin-4-yl}methyl)-4-(2,2,2-trifluoroethoxy)-2H-indazol-5-carboxamide] | 7.24 | xxx (xxx > 100) | xxx (xxx > 100) |
| COCCNC(=O)c1ccc2nn(CC3CCN(C(=O)c4ccc(-c5ccccc5F)cc4)CC3)cc2c1C [Example 47, 2-({1-[(2′-fluoro-biphenyl-4-yl)-carbonyl]piperidin-4-yl}methyl)-N-(2-methoxyethyl)-4-methyl-2H-indazol-5-carboxamide] | 8.25 | xxx (xxx > 100) | xxx (xxx > 100) |
| Cc1c(C(=O)NCCOCC(F)(F)F)ccc2nn(CC3CCN(C(=O)c4ccc(-c5ccc(F)cc5)cc4)CC3)cc12 [Example 94, 2-({1-[(4′-fluoro-biphenyl-4-yl)-carbonyl]piperidin-4-yl}methyl)-4-methyl-N-[2-(2,2,2-trifluoroethoxy)-ethyl]-2H-indazol-5-carboxamide] | 7.89 | xxx (xxx > 100) | xxx (xxx > 100) |
| COC1CN(CCNC(=O)c2ccc3nn(CC4CCN(C(=O)c5ccc(Cl)cc5)CC4)cc3c2C)C1 [Example 238, 2-{[1-(4-chlorobenzoyl)piperidin-4-yl]methyl}-N-[2-(3-methoxyazetidin-1-yl)ethyl]-4-methyl-2H-indazol-5-carboxamide] | 7.49 | xxx (xxx > 100) | xxx (xxx > 100) |
| Cc1c(C(=O)NCC(F)(F)F)ccc2nn(CC3CN(C(=O)c4ccc(-c5ccc(F)cc5)cc4)C3)cc12 [Example 161, 2-({1-[(4′-fluorobiphenyl-4-yl)carbonyl]azetidin-3-yl}methyl)-4-methyl-N-(2,2,2-trifluoroethyl)-2H-indazol-5-carboxamide] | 7.01 | xxx (xxx > 100) | xxx (xxx > 100) |
| Cc1c(C(=O)NCCOC(F)(F)F)ccc2nn(CC3CCN(C(=O)c4ccc(Oc5ccc(C(F)(F)F)cc5)cc4)CC3)cc12 [Example 110, 4-methyl-N-[2-(trifluoromethoxy)ethyl]-2-[(1-{4-[4-(trifluoro-methyl)phenoxy]-benzoyl}piperidin-4-yl)-methyl]-2H-indazol-5-carboxamide] | 8.36 | xxx (xxx > 100) | xxx (xxx > 100) |
| Cc1c(C(=O)NCCOC(C)(C)C)ccc2nn(CC3CCN(C(=O)c4ccc(-c5ccc(F)cc5)cc4)CC3)cc12 [Example 113, N-(2-tert-butoxyethyl)-2-({1-[(4′-fluoro-biphenyl-4-yl)-carbonyl]piperidin-4-yl}methyl)-4-methyl-2H-indazol-5-carboxamide] | 7.86 | xxx (xxx > 100) | xxx (xxx > 100) |
| Cc1c(C(=O)NCC(F)(F)F)ccc2nn(CC3CCN(C(=O)c4ccc(-c5ccc(F)cc5)cc4)CC3)cc12 [Example 286, 2-({1-[(4′-fluorobiphenyl-4-yl)carbonyl]piperidin-4-yl}methyl)-4-methyl-N-(2,2,2-trifluoroethyl)-2H-indazol-5-carboxamide] | 7.00 | xxx (xxx > 100) | xxx (xxx > 100) |
| Cc1c(C(=O)NCCN2CCOCC2)ccc2nn(CC3CCN(C(=O)c4ccc(Cl)cc4)CC3)cc12 [Example 62, 2-{[1-(4-chlorobenzoyl)piperidin-4-yl]methyl}-4-methyl-N-(2-morpholinoethyl)-2H-indazol-5-carboxamide] | 6.17 | xx (xx: 10-100) | xx (xx: 10-100) |
| COCCNC(=O)c1ccc2nn(CC3CCN(C(=O)c4ccc(-c5ccc(F)cc5Cl)cc4)CC3)cc2c1C [Example 384, 2-({1-[(2′-chloro-4′-fluorobiphenyl-4-yl)carbonyl]piperidin-4-yl}methyl)-N-(2-methoxyethyl)-4-methyl-2H-indazol-5-carboxamide] | 8.40 | xxx (xxx > 100) | xxx (xxx > 100) |
| Cc1c(C(=O)NCC2COCCO2)ccc2nn(CC3CN(C(=O)c4ccc(Cl)cc4)C3)cc12 (racemic) [Example 141, (+/−)-2-{[1-(4-chlorobenzoyl)azetidin-3-yl]methyl}-N-(1,4-dioxan-2-ylmethyl)-4-methyl-2H-indazol-5-carboxamide] | 6.84 | xxx (xxx > 100) | xxx (xxx > 100) |
| COCCNC(=O)c1cc2cn(CC3CN(C(=O)c4ccc(Cl)c(C(F)(F)F)c4)C3)nc2cc1C [Example 185, 2-({1-[4-chloro-3-(trifluoromethyl)benzoyl]azetidin-3-yl}methyl)-N-(2-methoxy-ethyl)-6-methyl-2H-indazol-5-carboxamide] | 7.61 | xxx (xxx > 100) | xxx (xxx > 100) |
| Cc1cc2nn(CC3CCN(C(=O)c4ccc(Oc5ccc(F)cc5)cc4)CC3)cc2cc1C(=O)NCCN1CCOCC1 [Example 78, 2-({1-[4-(4-fluoro-phenoxy)benzoyl]-piperidin-4-yl}-methyl)-6-methyl-N-(2-morpholinoethyl)-2H-indazol-5-carboxamide] | 7.50 | xxx (xxx > 100) | xxx (xxx > 100) |
| COCCNC(=O)c1cc2cn(CC3CCN(C(=O)c4ccc(Cl)cc4F)CC3)nc2cc1C [Example 207, 2-{[1-(4-chloro-2-fluorobenzoyl)piperidin-4-yl]methyl}-N-(2-methoxyethyl)-6-methyl-2H-indazol-5-carboxamide] | 7.52 | xxx (xxx > 100) | xxx (xxx > 100) |
| COCCNC(=O)c1ccc2nn(CC3CCN(C(=O)c4ccc(Oc5ccc(C(N)=O)cc5)cc4)CC3)cc2c1C [Example 30, 2-({1-[4-(4-carbamoylphenoxy)-benzoyl]piperidin-4-yl}methyl)-N-(2-methoxyethyl)-4-methyl-2H-indazol-5-carboxamide] | 7.19 | xxx (xxx > 100) | xxx (xxx > 100) |
| Cc1c(C(=O)NCCCO)ccc2nn(CC3CCN(C(=O)c4ccc(Cl)cc4)CC3)cc12 [Example 253, 2-{[1-(4-chlorobenzoyl)piperidin-4-yl]methyl}-N-(3-hydroxypropyl)-4-methyl-2H-indazol-5-carboxamide] | 6.77 | xx (xx: 10-100) | xx (xx: 10-100) |
| Cc1c(C(=O)NCCSC(F)(F)F)ccc2nn(C[C@@H]3CCN(C(=O)c4ccc(OC(F)(F)F)cc4)C3)cc12 [Example 221, 4-methyl-2-({(R)-1-[4-(trifluoromethoxy)benzoyl]pyrrolidin-3-yl}methyl)-N-{2-[(trifluoromethyl)sulphanyl]ethyl}-2H-indazol-5-carboxamide] | 6.63 | xx (xx: 10-100) | xx (xx: 10-100) |
| COC(C)CNC(=O)c1cc2cn(CC3CN(C(=O)c4ccc(Cl)cc4)C3)nc2cc1C (racemic) [Example 192, (+/−)-2-{[1-(4-chlorobenzoyl)azetidin-3-yl]methyl}-N-(2-methoxypropyl)-6-methyl-2H-indazol-5-carboxamide] | 6.69 | xx (xx: 10-100) | xx (xx: 10-100) |
| Cc1c(C(=O)NCCN2CCOCC2)ccc2nn(CC3CCN(C(=O)c4ccc(-c5ccc(F)cc5)cc4)CC3)cc12 [Example 66, 2-({1-[(4′-fluoro-biphenyl-4-yl)-carbonyl]piperidin-4-yl}methyl)-4-methyl-N-(2-morpholino-ethyl)-2H-indazol-5-carboxamide] | 6.49 | xx (xx: 10-100) | xx (xx: 10-100) |
| Cc1c(C(=O)NCCN2CCOCC2)ccc2nn(CC3CCN(C(=O)c4ccc(C(F)(F)F)cc4F)CC3)cc12 [Example 58, 2-({1-[2-fluoro-4-(trifluoromethyl)benzoyl]piperidin-4-yl}methyl)-4-methyl-N-(2-morpholinoethyl)-2H-indazol-5-carboxamide] | 5.97 | xx (xx: 10-100) | xx (xx: 10-100) |

From patent US9062041B2 (Bayer Intellectual Property GmbH, priority 2011, dated 2015)
